This is an account of results in ChEMBL document CHEMBL1201862, “PubChem BioAssay data set” (2004).

Common to all, as to test: DTP human tumour cell line panel, 48 h
In assay [1] the test system is CAKI-1.
The test system of assay [2] is COLO 205.
Assay [3] relates to DU-145.
In assay [4] the test system is HCT-116.
In assay [5] the test system is HL-60.
Assay [6] concerns HOP-62.
The subject of assay [7] is KM12.
The subject of assay [8] is LOX IMVI.
Assay [9] deals with MCF7.
Assay [10] relates to MDA-N.
The subject of assay [11] is NCI-H226.
For assay [12], the system named is NCI-H23.
Assay [13] has as its system OVCAR-4.
Assay [14] relates to RXF 393.
The subject of assay [15] is SF-268.
Assay [16] has as its system SF-295.
Assay [17] deals with SF-539.
In assay [18] the test system is SK-MEL-2.
Assay [19] concerns SR.
Assay [20] relates to UO-31.

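Briefly, cells in 96-well plates were exposed to five compound concentrations for 48 h, and endpoints were estimated by linear interpolation. GI50: concentration for 50% inhibition of growth.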 Calls of active or inactive are those of the source. Cut-off read from the data, not from the text of the source: active = GI50 up to about 1.1 µM and inactive = higher.

A word on the GI50: it is the concentration that inhibits growth by half. For `Cc1ccc(-c2cs/c(=N\c3ccccc3)n2NC(=O)c2ccncc2)cc1`, the GI50 in assay [1] is 26.4 µM (inactive); in assay [2], 29.8 µM (inactive); in assay [3] it was 56.2 µM (inactive); in assay [4] it was 31.8 µM (inactive); in assay [5], 19.4 µM (inactive); in assay [6], 39.4 µM (inactive). The GI50 in [7] was 31.4 µM (inactive); in [8], 34.2 µM (inactive); in [9], 33.3 µM (inactive); in assay [10] it was 25.4 µM (inactive); in assay [11], 28.4 µM (inactive); in assay [12], 31.3 µM (inactive). Also, the GI50 is 36.9 µM (inactive) in assay [13]; 35.2 µM (inactive) in assay [14]; 42.1 µM (inactive) in assay [15]; 27.6 µM (inactive) in assay [16]; 69 µM (inactive) in assay [17]; 28.5 µM (inactive) in assay [18]. The GI50 in [19] is 34.8 µM (inactive); in assay [20], 30.6 µM (inactive).

Turning to `CC(C)/C(Cl)=N\OC(=O)Nc1cccc(Cl)c1`, the GI50 in assay [1] is 17.7 µM (inactive); in assay [2], 2.08 µM (inactive); in assay [3], 22.5 µM (inactive); in [4] it was 18.1 µM (inactive); in assay [5], 1.71 µM (inactive); in assay [6] it was > 46 µM (inactive). Besides, the GI50 in [7] was 16.5 µM (inactive); in assay [8], 3.72 µM (inactive); in assay [9], 15.8 µM (inactive); in assay [10], 14.8 µM (inactive); in assay [11], 20.8 µM (inactive); in assay [12], 15.2 µM (inactive). Besides, the GI50 in [13] is 13.3 µM (inactive); in [14] it was 18.5 µM (inactive); in assay [15] it was 18.5 µM (inactive); in assay [16], 36.1 µM (inactive); in assay [17] it was 18.9 µM (inactive); in assay [18], 15.5 µM (inactive). Besides, the GI50 in assay [19] was 2.49 µM (inactive); in assay [20], 19.1 µM (inactive).

For `COc1cccc2c1-c1c(OC)cccc1SS2`, the GI50 in assay [1] is 25.2 µM (inactive); in [2], 20 µM (inactive); in [3], 28.9 µM (inactive); in [4], 18.2 µM (inactive); in [5] it was 1.01 µM (active); in assay [6] it was 47.2 µM (inactive). Also, the GI50 was 34 µM (inactive) in assay [7]; 10.7 µM (inactive) in assay [8]; 20.3 µM (inactive) in [9]; 2.67 µM (inactive) in assay [10]; 16 µM (inactive) in assay [11]; 18.6 µM (inactive) in assay [12]. The GI50 in assay [13] was 21.8 µM (inactive); in assay [14], 17.5 µM (inactive); in assay [15], 22.6 µM (inactive); in assay [16], 19.9 µM (inactive); in assay [17] it was 17.7 µM (inactive); in [18] it was 17.5 µM (inactive). The GI50 is 16.9 µM (inactive) in assay [19] and 22.8 µM (inactive) in assay [20].

Regarding `Cc1nc2cc(/N=N/c3c(O)ccc4ccccc34)ccc2[nH]1`, the GI50 in assay [1] is 26.6 µM (inactive); in assay [2] it was 29.5 µM (inactive); in assay [3] it was 36 µM (inactive); in [4], 23.3 µM (inactive); in [5], 15.1 µM (inactive); in [6], > 64.7 µM (inactive). In addition, the GI50 was 25.4 µM (inactive) in assay [7]; 18.5 µM (inactive) in assay [8]; 21.2 µM (inactive) in assay [9]; 17 µM (inactive) in assay [10]; > 62.2 µM (inactive) in assay [11]; > 62.2 µM (inactive) in [12]. For the same compound, the GI50 in assay [13] was 18.8 µM (inactive); in [14], > 42.4 µM (inactive); in assay [15] it was > 68.5 µM (inactive); in assay [16] it was 41.1 µM (inactive); in assay [17], 26.7 µM (inactive); in [18], 42.2 µM (inactive). For the same compound, the values for the GI50 in [19] and in [20] were 24.2 µM (inactive) and 45.1 µM (inactive), respectively.

As for `COc1ccc(/C=N/N=C(\N)NO)c(OC)c1OC`, the GI50 in assay [1] is 54.3 µM (inactive); in assay [2] it was 19.1 µM (inactive); in assay [3], 12.8 µM (inactive); in [4] it was 20.1 µM (inactive); in assay [5] it was 23.1 µM (inactive); in assay [6] it was 32.7 µM (inactive). The GI50 in assay [7] was 4.69 µM (inactive); in [8] it was 23.4 µM (inactive); in assay [9], 11.5 µM (inactive); in [10], 66.5 µM (inactive); in [11], 23.4 µM (inactive); in assay [12], 31.3 µM (inactive). Moreover, the GI50 is 53.7 µM (inactive) in assay [13]; 30.1 µM (inactive) in assay [14]; 24.7 µM (inactive) in [15]; 31.6 µM (inactive) in [16]; 25.2 µM (inactive) in assay [17]; 25.6 µM (inactive) in assay [18]. Moreover, the values for the GI50 in assay [19] and in assay [20] were 25 µM (inactive) and 20.8 µM (inactive), respectively.

For `CSC(=S)Nc1cc(C)ccn1`, the GI50 in [1] was > 100 µM (inactive); in [2] it was 50.8 µM (inactive); in [3], > 100 µM (inactive); in assay [4], 70.5 µM (inactive); in assay [5], > 100 µM (inactive); in assay [6], > 100 µM (inactive). For the same compound, the GI50 in assay [7], in [8], in assay [9], in [10], in [11] and in [12] was > 100 µM (inactive) in each case. For the same compound, the GI50 in assay [13] is 39.1 µM (inactive); in [14], > 100 µM (inactive); in assay [15], 70 µM (inactive); in assay [16] it was 76.7 µM (inactive); in assay [17], > 100 µM (inactive); in assay [18], 93.5 µM (inactive). For the same compound, the GI50 in assay [19] was 78.2 µM (inactive); in assay [20] it was > 100 µM (inactive).

For `CC(=O)NC(Cc1ccc(OP(=O)(OCc2ccc([N+](=O)[O-])o2)N(C)CCCCCl)cc1)C(=O)NC(C)c1ccc(OCC2CCCCC2)c(C(N)=O)c1` (stereo not given), the GI50 in assay [1] is 21.3 µM (inactive); in [2], 1.87 µM (inactive); in assay [3] it was 3.74 µM (inactive); in assay [4], 2.36 µM (inactive); in assay [5] it was 2.79 µM (inactive); in assay [6] it was 9.66 µM (inactive). Moreover, the GI50 in [7] is 2.68 µM (inactive); in assay [8], 1.97 µM (inactive); in [9], 2.25 µM (inactive); in assay [10], 2.24 µM (inactive); in [11], 5.94 µM (inactive); in [12] it was 2.21 µM (inactive). Also, the GI50 is 3.66 µM (inactive) in [13]; 2.02 µM (inactive) in assay [14]; 2.24 µM (inactive) in assay [15]; 4.74 µM (inactive) in assay [16]; 2.08 µM (inactive) in assay [17]; 3.08 µM (inactive) in assay [18]. For the same compound, the GI50 was 2.21 µM (inactive) in assay [19] and 17.3 µM (inactive) in assay [20].

For `CC(C)C1=CCC2C(=C1)CCC1C(C)(C(=O)O)CCCC21C` (stereo not given), the GI50 in assay [1] was > 100 µM (inactive); in assay [2], > 100 µM (inactive); in [3], > 100 µM (inactive); in assay [4], > 100 µM (inactive); in [5], 14.2 µM (inactive); in assay [6], > 100 µM (inactive). Moreover, the GI50 in assay [7] was 92.3 µM (inactive); in assay [8], > 100 µM (inactive); in assay [9], > 100 µM (inactive); in assay [10], > 100 µM (inactive); in assay [11] it was > 100 µM (inactive); in assay [12] it was 81.1 µM (inactive). The GI50 in assay [13] was 56.8 µM (inactive); in assay [14] it was > 100 µM (inactive); in [15], > 100 µM (inactive); in [16] it was 97.7 µM (inactive); in assay [17], > 100 µM (inactive); in assay [18] it was > 100 µM (inactive). Further, the results for the GI50 in assay [19] and in [20] were > 100 µM (inactive) and 79.1 µM (inactive), respectively.

Regarding `O=[N+]([O-])c1cnc(N(CCO)CCO)s1`, the GI50 in assay [1], in assay [2], in assay [3], in assay [4], in [5] and in [6] was > 100 µM (inactive) throughout. Besides, the GI50 in [7], in assay [8], in [9], in assay [10], in assay [11] and in [12] was > 100 µM (inactive) in each case. Further, the GI50 in assay [13], in assay [14], in assay [15], in assay [16], in [17] and in assay [18] was > 100 µM (inactive) in each case. In addition, the GI50 in assay [19] and in [20] was > 100 µM (inactive) in each case.

With `COc1ccc(CC(C#N)c2cc(OC)c(OC)c(OC)c2)cc1` (stereo not given), the GI50 in assay [1] was 0.0455 µM (active); in assay [2], 0.029 µM (active); in [3], 0.0422 µM (active); in assay [4], 0.0466 µM (active); in assay [5], 0.0258 µM (active); in assay [6], 0.0869 µM (active). Moreover, the GI50 in assay [7] was 0.0194 µM (active); in [8], 0.0328 µM (active); in assay [9], < 0.016 µM (active); in assay [10], < 0.01 µM (active); in assay [11] it was 0.773 µM (active); in assay [12], 0.109 µM (active). Also, the GI50 in assay [13] was 7.29 µM (inactive); in [14], 0.0575 µM (active); in assay [15], 0.204 µM (active); in assay [16] it was 0.0184 µM (active); in assay [17], 0.0436 µM (active); in assay [18], 0.0775 µM (active). In addition, the GI50 in assay [19] was 0.0206 µM (active); in assay [20], 0.442 µM (active).
